Measured values from patent publication US9140688B2, “Sperm staining and sorting methods” (INGURAN, LLC, priority 2011, dated 2015).

What was measured:
[1] = solvent water; shorter-wavelength local maximum; cited from earlier work
[2] = tested on: membrane compromised bovine sperm stained with Hoechst 33342; experiment: Dead quenching: dead gate intensity divided by live gate intensity, flow cytometry of stained bovine sperm; type: cell-based; settings: for Dead Intensity (dead gate intensity divided by live gate intensity): Ex 5
Excerpt: FIG. 4 illustrates an example bivariate plot and univariate histogram of the parameters measured during sex selection by a FACS on a flow cytometer. […] Without a dead quenching dye, both populations of sperm would overlap to a large extent, with unpredictable variations in the dead sperm.
The entire ejaculate of sperm was suspended in first staining buffer, specifically a 7.4 pH TALP described in TABLE 1, to a concentration of 160×10^6 sperm per mL (determined on nucleocounter) and divided into three aliquots of about 20 mL into 50 mL Falcon tubes and pre-warmed for 10 minutes at 34° C. The DNA selective fluorescent dye, Hoechst 33342, was added and samples were held at 34° C. for 60 minutes. 3 different Hoechst 33342 Stain Levels were used=12 μL, 14 μL and 16 μL per 2 mL (effective concentrations of 48 μM, 56 μM, 64 μM).
Preparation of the second buffer including the dead quenching dye—A 2 L bag of TALP, described in TABLE 1, was adjusted to pH 5.60 using HCl and then sterile filtered. […] For each of the four dyes tested (R40—red food dye No. 40, Y5—yellow food dye No. 5, Y6—yellow food dye No. 6 and PR—phenol red), an appropriate number of milligrams of each powder was placed in a Erlenmeyer Flask and then an exact amount of TALP pH 5.60 was added to create a […] concentration of the dye. The result was a working TALP stock for each dye with a 100% (125 μM) relative amount of dye 50% relative (62.5 μM) and 20% relative (25 μM) solutions were made by dilution of 100% by TALP pH 5.60.
After this “bulk” staining for 60 minutes, 1 mL aliquots of stained sperm were combined with 1 mL aliquots of the second buffer including the dead quenching dyes. Samples sat for approximately 30 minutes at room temperature before being analyzed on a MoFlo SX (Beckman Coulter, USA) sperm sorting flow cytometer. Event rates were held as close to 13,000 as possible at the point of data acquisition.
The total number of individual treatments was 42 tubes, each containing 2 mL of stained sample. The alignment of the sorter was established using nuclei and confirmed with live sample from the 50% Red 40 series. Once good alignment was established, each tube was placed on the sorter long enough to establish a stabile dead gate population (about 30 seconds) and then a screenshot was taken and saved as a .jpeg image. This approach of rapidly documenting each sample is used to assure the most consistent alignment between all samples. Realignment of sorter will not cause differences in the intensities of live and dead gate populations but will cause differences in split quality.
FIG. 4 illustrates an example histogram. The ratio of dead gate intensity divided by live gate intensity is created by dividing the distance “A” by the distance “B” shown as a percentage. Lower values mean higher levels of quenching. The ratio of peak height divided by valley height is created by dividing the distance “C” by the distance “D”. A value of 1.00 means “no split” while higher values mean “better splits”. […]

[3] = tested on: X- and Y-chromosome bearing bovine sperm stained with Hoechst 33342; experiment: Split quality: height of peak divided by height of valley (PV), flow cytometry of stained bovine sperm; type: cell-based; settings: for Height of Peak/Height of Valley: Ex 5; for Height of Peak Divided by Height of Valley: Ex 7, Yellow 6 62 μM, Phenol Red 0 μM
deer sperm = experiment: Post thaw motility of bulk sorted deer sperm (Example 3); type: cell-based; settings: 0 HR; RED TALP with 16 μL, Y6 with 14 μL Hoechst 33342
Method: (§1) Each of deer and elk were collected in the Tris-egg yolk catch fluid described as a catch media in Example 1, and shipped for sorting.
(§2) A portion of each of the deer and the elk were stained by the red food dye No. 40 treatment 40% with 16 μL Hoechst 33342 and the yellow food dye No. 6 treatment with 14 μL Hoechst 33342 as described in Example 1.
(§3) Samples were each bulk sorted with the same machine and parameters described in Example 1. Both sorted X and sorted Y sperm were collected into a single catch. The sorted samples were then frozen like those described in Example 1.
(§4) Frozen thawed samples were then tested for post thaw motilities and post thaw DNA fragmentation. Post thaw motilities were slightly higher in Elk sorted with a yellow quencher, while a more significant difference existed in progressive motility. In Table 10, post thaw DNA fragmentation in Elk can be seen at about double after 48 hours when red food dye No. 40 is compared to yellow food dye No. 6 as a dead quencher.

elk sperm = experiment: Post thaw DNA fragmentation of elk sperm (Example 3); type: cell-based; settings: unit assumed
Method: as §1, §2, §3, §4

[4] = dye 62.5 μM, Hoechst 12 μL/2 mL
[5] = dye 62.5 μM, Hoechst 14 μL/2 mL
[6] = dye 62.5 μM, Hoechst 16 μL/2 mL
[7] = Ex 6, dye 62.5 μM, resulting pH 6.70, Hoechst 48 μM

Post Thaw DNA fragmentation Elk, Post Sort (elk sperm; 0 HR): 0%
Post Thaw DNA fragmentation Elk, Pre-sort (elk sperm; 0 HR): 2.3%
Post Thaw DNA fragmentation Elk, Post Sort (elk sperm; 24 HR): 0%
Post Thaw DNA fragmentation Elk, Pre-sort (elk sperm; 24 HR): 3.3%
Post Thaw DNA fragmentation Elk, Post Sort (elk sperm; 48 HR): 0.3%
Post Thaw DNA fragmentation Elk, Pre-sort (elk sperm; 48 HR): 3.7%
SMILES: O=S(=O)([O-])c1ccc(N=Nc2c(O)ccc3cc(S(=O)(=O)[O-])ccc23)cc1.[Na+].[Na+] [Yellow 6, Disodium 6-hydroxy-5-[(4-sulfophenyl)azo]-2-naphthalenesulfononate]
Expected Absorption Maxima [1]: 480 nm
Dead Intensity (dead gate intensity divided by live gate intensity) ([2]; dye 25 μM, Average of Hoechst levels): 71%
Dead Intensity (dead gate intensity divided by live gate intensity) ([2]; dye 25 μM, Hoechst 12 μL/2 mL): 68%
Dead Intensity (dead gate intensity divided by live gate intensity) ([2]; dye 25 μM, Hoechst 14 μL/2 mL): 74%
Dead Intensity (dead gate intensity divided by live gate intensity) ([2]; dye 25 μM, Hoechst 16 μL/2 mL): 70%
Dead Intensity (dead gate intensity divided by live gate intensity) ([2]; dye 62.5 μM, Average of Hoechst levels): 51%
Dead Intensity (dead gate intensity divided by live gate intensity) [2, 4]: 50%
Dead Intensity (dead gate intensity divided by live gate intensity) [2, 5]: 52%
Dead Intensity (dead gate intensity divided by live gate intensity) [2, 6]: 52%
Dead Intensity (dead gate intensity divided by live gate intensity) ([2]; dye 125 μM, Average of Hoechst levels): 39%
Dead Intensity (dead gate intensity divided by live gate intensity) ([2]; dye 125 μM, Hoechst 12 μL/2 mL): 37%
Dead Intensity (dead gate intensity divided by live gate intensity) ([2]; dye 125 μM, Hoechst 14 μL/2 mL): 40%
Dead Intensity (dead gate intensity divided by live gate intensity) ([2]; dye 125 μM, Hoechst 16 μL/2 mL): 40%
Intensity (dead gate) [2, 7]: 50%
quenching of the dead population compared to red food dye No. 40 (FIG. 3) ([2]; three bulls, equal amounts of Hoechst 33342 and of dye): superior quenching
Height of Peak/Height of Valley ([3]; dye 25 μM, Average of 12 and 14 μL series): 2.06
Height of Peak/Height of Valley ([3]; dye 25 μM, Hoechst 12 μL/2 mL): 2.05
Height of Peak/Height of Valley ([3]; dye 25 μM, Hoechst 14 μL/2 mL): 2.07
Height of Peak/Height of Valley ([3]; dye 25 μM, Hoechst 16 μL/2 mL): 1.13
Height of Peak/Height of Valley ([3]; dye 62.5 μM, Average of 12 and 14 μL series): 1.66
Height of Peak/Height of Valley [3, 4]: 1.70
Height of Peak/Height of Valley [3, 5]: 1.62
Height of Peak/Height of Valley [3, 6]: 1.00
Height of Peak/Height of Valley ([3]; dye 125 μM, Average of 12 and 14 μL series): 1.77
Height of Peak/Height of Valley ([3]; dye 125 μM, Hoechst 12 μL/2 mL): 1.73
Height of Peak/Height of Valley ([3]; dye 125 μM, Hoechst 14 μL/2 mL): 1.80
Height of Peak/Height of Valley ([3]; dye 125 μM, Hoechst 16 μL/2 mL): 1.26
PV [3, 7]: 1.00
Height of Peak Divided by Height of Valley ([3]; cells 100 million per mL): 1.26
Height of Peak Divided by Height of Valley ([3]; cells 150 million per mL): 1.30
Height of Peak Divided by Height of Valley ([3]; cells 250 million per mL): 1.25
Height of Peak Divided by Height of Valley ([3]; cells 300 million per mL): 1.23
PV ([3]; Ex 8, Bull 1, Hoechst 44 μM, Y6 50 μM alone): 1.20
PV ([3]; Ex 8, Bull 1, Hoechst 60 μM, Y6 50 μM alone): 1.39
PV ([3]; Ex 8, Bull 2, Hoechst 28 μM, Y6 50 μM alone): 1.64
PV ([3]; Ex 8, Bull 2, Hoechst 44 μM, Y6 50 μM alone): 1.35
PV ([3]; Ex 8, Bull 2, Hoechst 60 μM, Y6 50 μM alone): 1.35
PV ([3]; Ex 8, Bull 2, Hoechst 60 μM, Y6 375 μM alone): 1.72
PV ([3]; Ex 9, Bull 3, Hoechst 60 μM, Y6 50 μM, R3 0 μM, first Y6 series): 1.26
PV ([3]; Ex 9, Bull 3, Hoechst 60 μM, Y6 50 μM, R3 0 μM, second Y6 series): 1.32
Post Thaw Motility Deer, Motile (deer sperm): 67.5
Post Thaw Motility Deer, Progressive (deer sperm): 53.2
